Assay results taken from patent publication US20100227313A1, “Methods and Compositions for Determining Altered Susceptibility of HIV-1 to Protease Inhibitor Treatment” (priority 2007, published 2010).

Test system: HIV-1
Assay: Resistance test vector (PHENOSENSE) phenotypic susceptibility assay, fold change in IC50, correlated with genotype (Fisher's Exact test, odds ratio)
Assay type: cell-based, human immunodeficiency virus type 1
Conditions: for Odds Ratio: reduced susceptibility (FC>2)
Text: See Petropoulos et al., 2000, Antimicrob. Agents Chemother. 44:920-928; U.S. Pat. Nos. 5,837,464 and 6,242,187. PHENOSENSE™ is a phenotypic assay that achieves the benefits of phenotypic testing and overcomes the drawbacks of previous assays.
PHENOSENSE™ can obtain results with only one round of viral replication, thereby avoiding selection of subpopulations of virus that can occur during preparation of viral stocks required for assays that rely on fully infectious virus.
A resistance test vector (“RTV”) can then be constructed by incorporating the amplified viral gene sequences into a replication defective viral vector by using any method known in the art of incorporating gene sequences into a vector. In one embodiment, restrictions enzymes and conventional cloning methods are used. See Sambrook et al., 2001, Molecular Cloning: A Laboratory Manual, Cold Spring Harbor Laboratory, 3rd ed., NY; and Ausubel et al., 1989, Current Protocols in Molecular Biology, Greene Publishing Associates and Wiley Interscience, NY. In a preferred embodiment, ApaI and PinAI restriction enzymes are used. Preferably, the replication defective viral vector is the indicator gene viral vector (“IGVV”). In a preferred embodiment, the viral vector contains a means for detecting replication of the RTV. Preferably, the viral vector contains a luciferase expression cassette.
The assay can be performed by first co-transfecting host cells with RTV DNA and a plasmid that expresses the envelope proteins of another retrovirus, for example, amphotropic murine leukemia virus (MLV). Following transfection, viral particles can be harvested from the cell culture and used to infect fresh target cells in the presence of varying amounts of anti-viral drug(s). The completion of a single round of viral replication in the fresh target cells can be detected by the means for detecting replication contained in the vector. In a preferred embodiment, the completion of a single round of viral replication results in the production of luciferase. By monitoring the amount of, e.g., luciferase activity in the presence of the varying amounts of antiviral drug(s), a resistance curve can be constructed by plotting luciferase activity versus drug concentration. The susceptibility of an HIV, or population of HIV, can be determined by measuring the concentration of antiviral drug at which the luciferase activity detected is half-maximal. This number, the IC50, provides a standard and convenient measure of drug resistance.
Patient derived segment(s) corresponding to the HIV protease and reverse transcriptase coding regions were amplified by the reverse transcription polymerase chain reaction method (RT PCR) using viral RNA isolated from viral particles present in the plasma or serum of HIV infected individuals as follows. Viral RNA was isolated from the plasma or serum using oligo-dT magnetic beads (Dynal Biotech, Oslo, Norway), followed by washing and elution of viral RNA. The RT PCR protocol was divided into two steps. A retroviral reverse transcriptase (e.g. Moloney MuLV reverse transcriptase (Roche Molecular Systems, Inc., Branchburg, N.J.; Invitrogen, Carlsbad, Calif.), or avian myeloblastosis virus (AMV) reverse transcriptase, (Boehringer Mannheim, Indianapolis, Ind.) was used to copy viral RNA into cDNA. The cDNA was then amplified using a thermostable DNA polymerase (e.g. Taq (Roche Molecular Systems, Inc., Branchburg, N.J.), Tth (Roche Molecular Systems, Inc., Branchburg, N.J.), PRIMEZYME™ (isolated from Thermus brockianus, Biometra, Gottingen, Germany)) or a combination of thermostable polymerases as described for the performance of “long PCR” (Barnes, W.M., 1994, Proc. Natl. Acad. Sci, USA 91, 2216 20) (e.g. Expand High Fidelity PCR System (Taq+Pwo), (Boehringer Mannheim. Indianapolis, Ind.); GENEAMP XL™ PCR kit (Tth+Vent), (Roche Molecular Systems, Inc., Branchburg, N.J.); or […] II®, Clontech, Palo Alto, Calif.)

CC(C)CN(C[C@@H](O)[C@H](Cc1ccccc1)NC(=O)O[C@H]1CCOC1)S(=O)(=O)c1ccc(N)cc1 [APV, amprenavir]
correlation of FC in susceptibility with the FC in susceptibility for DRV (2862 clinical samples, FC relative to wild-type (NL4-3), FIG. 1): tightly correlated | Odds Ratio (mutation A22V in PR): 4.43 | Odds Ratio (mutation A71I in PR): 1.93 | Odds Ratio (mutation A71V in PR): 1.62 | Odds Ratio (mutation A431I in gag): 21.52 | Odds Ratio (mutation A431V in gag): 3.21 | Odds Ratio (mutation C67F in PR): 9.28 | Odds Ratio (mutation C95F in PR): 4.96 | Odds Ratio (mutation D60E in PR): 1.51 | Odds Ratio (mutation E34Q in PR): 4.54 | Odds Ratio (mutation E35D in PR): 1.27 | Odds Ratio (mutation E35N in PR): 10.13 | Odds Ratio (mutation E428D in gag): 1.94 | Odds Ratio (mutation E467K in gag): 2.39 | Odds Ratio (mutation E468K in gag): 2.98 | Odds Ratio (mutation F53L in PR): 4.91 | Odds Ratio (mutation F53Y in PR): 10.44 | Odds Ratio (mutation F463S in gag): 7.28 | Odds Ratio (mutation F463V in gag): 2.29 | Odds Ratio (mutation F465L in gag): 1.65 | Odds Ratio (mutation F465S in gag): 2.17 | Odds Ratio (mutation G16A in PR): 4.49 | Odds Ratio (mutation G73A in PR): 5.85 | Odds Ratio (mutation G73C in PR): 2.98 | Odds Ratio (mutation G73S in PR): 2.69 | Odds Ratio (mutation G73T in PR): 21.84 | Odds Ratio (mutation H69R in PR): 3.98 | Odds Ratio (mutation H441Q in gag): 3.05 | Odds Ratio (mutation I13V in PR): 1.41 | Odds Ratio (mutation I47V in PR): 98.74 | Odds Ratio (mutation I54A in PR): 7.70 | Odds Ratio (mutation I54L in PR): 8.74 | Odds Ratio (mutation I54M in PR): 32.44 | Odds Ratio (mutation I54V in PR): 2.67 | Odds Ratio (mutation I62V in PR): 1.28 | Odds Ratio (mutation I66F in PR): 4.19 | Odds Ratio (mutation I66V in PR): 4.16 | Odds Ratio (mutation I72L in PR): 3.51 | Odds Ratio (mutation I72V in PR): 1.51 | Odds Ratio (mutation I84V in PR): 58.10 | Odds Ratio (mutation I85V in PR): 3.21 | Odds Ratio (mutation I437V in gag): 3.51 | Odds Ratio (mutation I479T in gag): 1.28 | Odds Ratio (mutation K20R in PR): 2.41 | Odds Ratio (mutation K20T in PR): 1.55 | Odds Ratio (mutation K20V in PR): 4.43 | Odds Ratio (mutation K43T in PR): 7.24 | Odds Ratio (mutation K55R in PR): 4.17 | Odds Ratio (mutation L10F in PR): 3.36 | Odds Ratio (mutation L10I in PR): 1.95 | Odds Ratio (mutation L10V in PR): 1.62 | Odds Ratio (mutation L19P in PR): 6.49 | Odds Ratio (mutation L23I in PR): 4.81 | Odds Ratio (mutation L24F in PR): 11.71 | Odds Ratio (mutation L33F in PR): 12.07 | Odds Ratio (mutation L63P in PR): 1.10 | Odds Ratio (mutation L89I in PR): 2.71 | Odds Ratio (mutation L89M in PR): 1.95 | Odds Ratio (mutation L90M in PR): 1.24 | Odds Ratio (mutation L449F in gag): 1.46 | Odds Ratio (mutation L449V in gag): 9.49 | Odds Ratio (mutation M36I in PR): 1.48 | Odds Ratio (mutation M36L in PR): 1.98 | Odds Ratio (mutation M46I in PR): 2.32 | Odds Ratio (mutation M46L in PR): 2.48 | Odds Ratio (mutation M423I in gag): 2.07 | Odds Ratio (mutation N37D in PR): 1.55 | Odds Ratio (mutation P79A in PR): 18.04 | Odds Ratio (mutation P79S in PR): 9.49 | Odds Ratio (mutation P453I in gag): 4.11 | Odds Ratio (mutation P453V in gag): 9.49 | Odds Ratio (mutation P459T in gag): 2.53 | Odds Ratio (mutation Q58E in PR): 4.49 | Odds Ratio (mutation Q61N in PR): 5.22 | Odds Ratio (mutation Q92K in PR): 7.78 | Odds Ratio (mutation R452K in gag): 2.49 | Odds Ratio (mutation R452S in gag): 2.87 | Odds Ratio (mutation S451T in gag): 1.85 | Odds Ratio (mutation S462N in gag): 2.19 | Odds Ratio (mutation S488A in gag): 1.79 | Odds Ratio (mutation T4A in PR): 9.49 | Odds Ratio (mutation T4P in PR): 4.01 | Odds Ratio (mutation T4S in PR): 8.07 | Odds Ratio (mutation T12P in PR): 2.37 | Odds Ratio (mutation T74P in PR): 27.85 | Odds Ratio (mutation T91S in PR): 11.16 | Odds Ratio (mutation V11I in PR): 23.10 | Odds Ratio (mutation V32I in PR): 62.34 | Odds Ratio (mutation V82A in PR): 1.98 | Odds Ratio (mutation V82C in PR): 9.18 | Odds Ratio (mutation V82F in PR): 11.71 | Odds Ratio (mutation V82I in PR): 2.31 | Odds Ratio (mutation V82L in PR): 6.33 | Odds Ratio (mutation V82T in PR): 3.06
